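How tested: cells in 96-well plates exposed to compound for 48 hours at five concentrations. GI50 marks 50% less growth.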 The source made the active and inactive calls. No stated cut-off is given here; in the data, active = GI50 up to about 1.1 µM and inactive = higher.
Tests used:
Test in all cases: NCI-60 cell line screen, 48 h
[1] = tested on: Hs-578T
[2] = tested on: HL-60
[3] = tested on: IGROV-1
[4] = tested on: HCT-116
[5] = tested on: MOLT-4
[6] = tested on: KM12
[7] = tested on: SN12C
[8] = tested on: HOP-92
[9] = tested on: SF-539
[10] = tested on: OVCAR-3
[11] = tested on: COLO 205
[12] = tested on: A498
[13] = tested on: HCT-15
[14] = tested on: HT-29
[15] = tested on: UACC-257
[16] = tested on: OVCAR-4
[17] = tested on: OVCAR-8
[18] = tested on: MDA-N
[19] = tested on: SK-MEL-28
[20] = tested on: SK-MEL-2
[21] = tested on: BT-549
[22] = tested on: EKVX
[23] = tested on: OVCAR-5
[24] = tested on: SK-MEL-5
[25] = tested on: MCF7
[26] = tested on: CCRF-CEM
[27] = tested on: NCI-H226
[28] = tested on: DU-145
[29] = tested on: T47D
[30] = tested on: SW-620
[31] = tested on: SNB-19
[32] = tested on: UACC-62
[33] = tested on: A549
[34] = tested on: LOX IMVI
[35] = tested on: HOP-62
[36] = tested on: NCI-H460
[37] = tested on: Malme-3M
[38] = tested on: UO-31
[39] = tested on: SR
[40] = tested on: PC-3
[41] = tested on: HCC 2998
[42] = tested on: MDA-MB-435
[43] = tested on: 786-0
[44] = tested on: SF-295
[45] = tested on: ACHN
[46] = tested on: SF-268
[47] = tested on: RXF 393
[48] = tested on: CAKI-1
[49] = tested on: TK-10
[50] = tested on: RPMI-8226
[51] = tested on: U-251
[52] = tested on: NCI-H522
[53] = tested on: NCI/ADR-RES
[54] = tested on: SNB-75
[55] = tested on: NCI-H23
[56] = tested on: K562
[57] = tested on: SK-OV-3
[58] = tested on: MDA-MB-231
[59] = tested on: M14

Q: With Cc1ccc2c(c1)C/C(=C\c1ccccc1C(=O)O)C2=O as the compound, how does the GI50 [1] read?
A: > 100 µM (inactive)

Q: And the GI50 [2]?
A: > 100 µM (inactive)

Q: What about the GI50 [3] of the same compound?
A: > 100 µM (inactive)

Q: What about the GI50 [4] of the same compound?
A: > 100 µM (inactive)

Q: What about the GI50 [5] of the same compound?
A: > 100 µM (inactive)

Q: And the GI50 [6]?
A: > 100 µM (inactive)

Q: What about the GI50 [7] of the same compound?
A: > 100 µM (inactive)

Q: And the GI50 [8]?
A: > 100 µM (inactive)

Q: And the GI50 [9]?
A: 50.1 µM (inactive)

Q: What about the GI50 [10] of the same compound?
A: > 100 µM (inactive)

Q: And the GI50 [11]?
A: 35.6 µM (inactive)

Q: What about the GI50 [12] of the same compound?
A: > 100 µM (inactive)

Q: What about the GI50 [13] of the same compound?
A: > 100 µM

Q: And the GI50 [14]?
A: 40.6 µM (inactive)

Q: What about the GI50 [15] of the same compound?
A: > 100 µM (inactive)

Q: And the GI50 [16]?
A: > 100 µM (inactive)

Q: What about the GI50 [17] of the same compound?
A: > 100 µM (inactive)

Q: What about the GI50 [18] of the same compound?
A: > 100 µM (inactive)

Q: What about the GI50 [19] of the same compound?
A: > 100 µM (inactive)

Q: What about the GI50 [20] of the same compound?
A: > 100 µM (inactive)

Q: What about the GI50 [21] of the same compound?
A: > 100 µM (inactive)

Q: And the GI50 [22]?
A: > 100 µM (inactive)

Q: What about the GI50 [23] of the same compound?
A: > 100 µM (inactive)

Q: What about the GI50 [24] of the same compound?
A: 52.6 µM (inactive)

Q: And the GI50 [25]?
A: > 100 µM (inactive)

Q: What about the GI50 [26] of the same compound?
A: > 100 µM (inactive)

Q: What about the GI50 [27] of the same compound?
A: 37 µM (inactive)

Q: What about the GI50 [28] of the same compound?
A: > 100 µM (inactive)

Q: And the GI50 [29]?
A: > 100 µM (inactive)

Q: What about the GI50 [30] of the same compound?
A: > 100 µM (inactive)

Q: What about the GI50 [31] of the same compound?
A: > 100 µM (inactive)

Q: And the GI50 [32]?
A: > 100 µM (inactive)

Q: What about the GI50 [33] of the same compound?
A: > 100 µM (inactive)

Q: What about the GI50 [34] of the same compound?
A: > 100 µM (inactive)

Q: What about the GI50 [35] of the same compound?
A: > 100 µM (inactive)

Q: What about the GI50 [36] of the same compound?
A: > 100 µM (inactive)

Q: What about the GI50 [37] of the same compound?
A: > 100 µM (inactive)

Q: And the GI50 [38]?
A: 98.6 µM (inactive)

Q: What about the GI50 [39] of the same compound?
A: 46.3 µM (inactive)

Q: And the GI50 [40]?
A: > 100 µM (inactive)

Q: What about the GI50 [41] of the same compound?
A: > 100 µM (inactive)

Q: What about the GI50 [42] of the same compound?
A: > 100 µM (inactive)

Q: And the GI50 [43]?
A: > 100 µM (inactive)

Q: And the GI50 [44]?
A: > 100 µM (inactive)

Q: What about the GI50 [45] of the same compound?
A: > 100 µM (inactive)

Q: What about the GI50 [46] of the same compound?
A: > 100 µM (inactive)

Q: And the GI50 [47]?
A: > 100 µM (inactive)

Q: What about the GI50 [48] of the same compound?
A: > 100 µM (inactive)

Q: What about the GI50 [49] of the same compound?
A: > 100 µM (inactive)

Q: And the GI50 [50]?
A: 43.7 µM (inactive)

Q: What about the GI50 [51] of the same compound?
A: > 100 µM (inactive)

Q: What about the GI50 [52] of the same compound?
A: > 100 µM (inactive)

Q: What about the GI50 [53] of the same compound?
A: > 100 µM (inactive)

Q: And the GI50 [54]?
A: > 100 µM (inactive)

Q: And the GI50 [55]?
A: > 100 µM (inactive)

Q: What about the GI50 [56] of the same compound?
A: 98.2 µM (inactive)

Q: Which GI50 [1] does the source give for Clc1ccc(-c2ccc(-c3nn4c(CNc5ccccc5)nnc4s3)o2)c(Cl)c1 here?
A: > 100 µM (inactive)

Q: And the GI50 [2]?
A: 44.3 µM (inactive)

Q: What about the GI50 [3] of the same compound?
A: 22.8 µM (inactive)

Q: And the GI50 [4]?
A: 43.6 µM (inactive)

Q: And the GI50 [5]?
A: 24 µM (inactive)

Q: And the GI50 [6]?
A: 60 µM (inactive)

Q: And the GI50 [7]?
A: > 100 µM (inactive)

Q: What about the GI50 [57] of the same compound?
A: > 100 µM (inactive)

Q: And the GI50 [8]?
A: 29.2 µM (inactive)

Q: And the GI50 [9]?
A: 22.5 µM (inactive)

Q: And the GI50 [10]?
A: 45.2 µM (inactive)

Q: What about the GI50 [11] of the same compound?
A: 28 µM (inactive)

Q: What about the GI50 [12] of the same compound?
A: > 100 µM (inactive)

Q: What about the GI50 [13] of the same compound?
A: 48.1 µM

Q: And the GI50 [14]?
A: 40.1 µM (inactive)

Q: What about the GI50 [15] of the same compound?
A: 53.1 µM (inactive)

Q: What about the GI50 [16] of the same compound?
A: > 100 µM (inactive)

Q: What about the GI50 [17] of the same compound?
A: 68.7 µM (inactive)

Q: And the GI50 [18]?
A: 45.1 µM (inactive)

Q: And the GI50 [19]?
A: > 100 µM (inactive)

Q: And the GI50 [20]?
A: 90.4 µM (inactive)

Q: What about the GI50 [21] of the same compound?
A: > 100 µM (inactive)

Q: What about the GI50 [22] of the same compound?
A: 41.5 µM (inactive)

Q: What about the GI50 [23] of the same compound?
A: > 100 µM (inactive)

Q: What about the GI50 [24] of the same compound?
A: 33.4 µM (inactive)

Q: What about the GI50 [58] of the same compound?
A: 69.8 µM (inactive)

Q: And the GI50 [26]?
A: 46.7 µM (inactive)

Q: What about the GI50 [27] of the same compound?
A: 97.3 µM (inactive)

Q: And the GI50 [59]?
A: 93.3 µM (inactive)

Q: What about the GI50 [28] of the same compound?
A: > 100 µM (inactive)

Q: And the GI50 [29]?
A: 13.5 µM (inactive)

Q: What about the GI50 [30] of the same compound?
A: > 100 µM (inactive)

Q: What about the GI50 [31] of the same compound?
A: > 100 µM (inactive)

Q: And the GI50 [33]?
A: 72.3 µM (inactive)

Q: What about the GI50 [34] of the same compound?
A: > 100 µM (inactive)

Q: What about the GI50 [35] of the same compound?
A: > 100 µM (inactive)

Q: And the GI50 [36]?
A: 85.9 µM (inactive)

Q: What about the GI50 [37] of the same compound?
A: > 100 µM (inactive)

Q: And the GI50 [38]?
A: > 100 µM (inactive)

Q: What about the GI50 [39] of the same compound?
A: 27.5 µM (inactive)

Q: What about the GI50 [40] of the same compound?
A: 54.2 µM (inactive)

Q: What about the GI50 [42] of the same compound?
A: 58.1 µM (inactive)

Q: What about the GI50 [43] of the same compound?
A: > 100 µM (inactive)

Q: And the GI50 [44]?
A: 60.1 µM (inactive)

Q: And the GI50 [45]?
A: > 100 µM (inactive)

Q: What about the GI50 [46] of the same compound?
A: > 100 µM (inactive)

Q: What about the GI50 [47] of the same compound?
A: 33.5 µM (inactive)

Q: What about the GI50 [48] of the same compound?
A: > 100 µM (inactive)

Q: And the GI50 [49]?
A: > 100 µM (inactive)

Q: And the GI50 [50]?
A: 36.6 µM (inactive)

Q: And the GI50 [51]?
A: > 100 µM (inactive)

Q: And the GI50 [52]?
A: 57.8 µM (inactive)

Q: What about the GI50 [53] of the same compound?
A: 81.7 µM (inactive)

Q: And the GI50 [54]?
A: 50.7 µM (inactive)

Q: And the GI50 [55]?
A: 53.6 µM (inactive)

Q: What about the GI50 [56] of the same compound?
A: 43.7 µM (inactive)

Source: ChEMBL document CHEMBL1201862, “PubChem BioAssay data set” (2004)
